Test results taken from patent US20060198882A1, “Stable liposomes or micelles comprising a sphinolipid and a peg-lipopolymer” (priority 2003, published 2006).

Assays:
[1] = Critical aggregation concentration (CAC) by surface tension; type: physicochemical; settings: pure water containing 0.3% ethanol, room temperature
Experimental: The critical aggregation concentration (CAC) of the ceramides is the concentration at which aggregation of monomers to an amphiphile assembly occurs. CAC of the C2, C6, and C16 ceramides was determined in filtered pure water containing 0.3% ethanol by measuring at room temperature surface tension as a function of ceramide concentration. The measurements were done using μThrougs Kibron System (Helsinki, Finland) which determine the surface tension at the air/water interface. The measurement at each concentration was repeated until a constant value of surface tension was reached [Zuidam, N. and Barenholz, Y., Supra (1997)]

[2] = tested on: C-26 colon carcinoma cells; experiment: Cell uptake and metabolism of radiolabelled ceramide assemblies; type: cell-based, human
Experimental: C-26 colon carcinoma cells were seeded into six-well plates at density of 2.5×10^5 in 2 ml of complete RPMI-1640 medium supplemented with 10% FCS, antibiotics, and glutamine. The cells were allowed to grow for 48 hr and replaced with 1 ml of complete serum containing medium. […] The radioactive doses of ceramides and lipid (dpm/μmole) are described in Table 2C. After these predefined time periods cells were tripsinized and washed twice with PBS. Cell lipids, lipids of the medium and lipids of the wash fraction were extracted by the Bligh and Dyer procedure [E. G. Bligh and W. J. Dyer, Can. J. Biochem. Physiol. 37:[…] (1959)]. Briefly, chloroform, methanol, and DDW were added to the cells at a final ratio of 1:2:1 (by vol.), and incubated for 10 min at 45° C. Then the mixtures were centrifuged at […] for 5 min. The supernatants containing the lipids were taken and chloroform and DDW were added in order to reach the final volume ratio of chloroform: methanol:DDW of 1:1:1. Two phases were formed and well separated after centrifugation. The water/methanol rich upper phase was removed while the chloroform-rich lower phase which contains >99% of the lipids was washed once with synthetic upper phase composed of chloroform:methanol:DDW (6:94:96, by volume). The lipid-containing lower phase was dried under nitrogen stream and redissolved in chloroform: methanol (2:1, by vol.) ready for analysis.
The lipid mixture was applied to silica gel TLC plates and developed in the solvent system of chloroform:methanol: DDW (84:16:1,5, by vol.) and detected by Copper sulfate reagent. The TLC plates were photographed by the Fluor-S-Multyimiger (Bio-Rad, Hercules, Calif.). Migration of lipids from cells extracts, medium, and wash fractions was visualized in comparison to a different well established commercial markers. The retention factor RF (defined as the distance traveled by the compound divided by the distance traveled by the solvent) of various molecules are as follows: SPM-0.04, EPC or HSPC-0.1, DOTAP: 0.24, GalCer: 0.29-0.38, GluCer: 0.4, C6 Cer: 0.68, and C16 Cer: […].
The TLC plates were then subjected overnight to imaging plate and the radioactivity was measured by Bio-Imaging analyzer (FUJI BAS 1000, Japan) then the radioactive bands were scraped from the TLC plate, placed into the test tube containing scintillation medium Opti-Fluor (Packard Bioscience, Groningen, Netherlands) and the radioactivity was counted by a β-counter.
The uptake and metabolism of radiolabelled liposomal or free C6Cer were studied in C-26 colon carcinoma cells. Cells were incubated with either free ^14C6Cer (in ethanol) or with liposomal C6Cer. Total lipids were extracted and the level of uptake and metabolites were determined from cells and growth medium as described in Materials and Methods.

| Compound | CAC (critical aggregation concentration) [1] | Cell uptake (%) of ^14C6Cer ([2]; 2 hr) [%] | Cell uptake (nmole) of ^14C6Cer ([2]; 2 hr, 20 μM ceramide) [nmol] | Cell uptake (%) of ^14C6Cer ([2]; 24 hr) [%] | Cell uptake (nmole) of ^14C6Cer ([2]; 24 hr) [nmol] | Cell uptake (%) of ^14C6Cer ([2]; 72 hr) [%] | Cell uptake (nmole) of ^14C6Cer ([2]; 72 hr) [nmol] |
| --- | --- | --- | --- | --- | --- | --- | --- |
| CCCCCCCCCCCCC/C=C/[C@@H](O)[C@H](CO)NC(C)=O [C2Cer, N-Acetyl-D-erythro-sphingosine] | 10^−6M | – | – | – | – | – | – |
| CCCCCCCCCCCCC/C=C/[C@@H](O)[C@H](CO)NC(=O)CCCCC [C6Cer, N-hexanoyl-D-erythro-sphingosine] | – | 39.9 | 13.7 | 93.7 | 34.5 | 72 | 24.5 |
